This note sets out measurements from ChEMBL document CHEMBL3124816, “Preparation and optimization of new 4-(2-(indolin-1-yl)-2-oxoethyl)-2-morpholinothiazole-5-carboxylic acid and amide derivatives as potent and selective PI3Kβ inhibitors” (Bioorg Med Chem Lett, 2014).

Series [1] is described as follows: Thermodynamic solubility of the compound in 50 mM Phosphate buffer at pH 7.4 after 16 hrs by HPLC analysis. Format: physicochemical. The settings on record: for solubility thermodynamic at 16 h: phosphate buffer, pH 7.4, read-out: Therm_solubility.
The target of series [2] is T1, Phosphatidylinositol 4,5-bisphosphate 3-kinase catalytic subunit beta isoform (Homo sapiens, UniProt P42338). The series can be described thus: Inhibition of PI3Kbeta in human PTEN-deficient PC3 cells assessed as Akt phosphorylation at S473. The format is cell-based, PC-3.
T1 sequence (P42338 whole entry, canonical isoform): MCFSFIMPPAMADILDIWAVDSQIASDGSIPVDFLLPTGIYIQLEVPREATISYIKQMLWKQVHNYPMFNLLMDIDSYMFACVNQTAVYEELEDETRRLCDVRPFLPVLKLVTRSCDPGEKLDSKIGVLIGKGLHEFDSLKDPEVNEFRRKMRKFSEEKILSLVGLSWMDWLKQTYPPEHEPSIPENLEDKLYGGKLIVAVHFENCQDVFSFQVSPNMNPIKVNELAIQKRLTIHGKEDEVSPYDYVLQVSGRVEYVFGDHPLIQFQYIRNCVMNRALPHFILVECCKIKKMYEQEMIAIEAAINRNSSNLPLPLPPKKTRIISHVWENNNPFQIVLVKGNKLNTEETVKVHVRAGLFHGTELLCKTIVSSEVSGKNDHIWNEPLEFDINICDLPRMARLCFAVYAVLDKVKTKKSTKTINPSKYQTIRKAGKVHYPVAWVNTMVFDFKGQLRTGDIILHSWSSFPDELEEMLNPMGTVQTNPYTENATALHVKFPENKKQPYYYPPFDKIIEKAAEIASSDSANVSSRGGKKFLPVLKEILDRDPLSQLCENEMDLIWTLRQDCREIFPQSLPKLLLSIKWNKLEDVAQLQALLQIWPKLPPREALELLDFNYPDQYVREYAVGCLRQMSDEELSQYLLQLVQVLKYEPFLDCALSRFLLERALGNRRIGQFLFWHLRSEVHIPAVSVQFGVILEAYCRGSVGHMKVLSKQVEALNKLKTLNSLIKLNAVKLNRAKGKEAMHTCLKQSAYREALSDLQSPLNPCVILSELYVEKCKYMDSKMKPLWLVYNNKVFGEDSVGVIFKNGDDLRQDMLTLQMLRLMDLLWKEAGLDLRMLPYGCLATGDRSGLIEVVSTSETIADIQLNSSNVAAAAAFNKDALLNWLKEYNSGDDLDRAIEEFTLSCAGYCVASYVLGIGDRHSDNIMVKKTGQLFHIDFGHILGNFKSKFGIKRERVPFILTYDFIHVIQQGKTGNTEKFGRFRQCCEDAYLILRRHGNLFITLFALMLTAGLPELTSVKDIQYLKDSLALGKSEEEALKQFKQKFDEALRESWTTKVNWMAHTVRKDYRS
In series [3] the target is Phosphatidylinositol 4,5-bisphosphate 3-kinase catalytic subunit gamma isoform (Homo sapiens, UniProt P48736). The series can be described thus: Inhibition of human PI3Kgamma after 15 mins.
Phosphatidylinositol 4,5-bisphosphate 3-kinase catalytic subunit gamma isoform, sequence (P48736 whole entry, canonical isoform): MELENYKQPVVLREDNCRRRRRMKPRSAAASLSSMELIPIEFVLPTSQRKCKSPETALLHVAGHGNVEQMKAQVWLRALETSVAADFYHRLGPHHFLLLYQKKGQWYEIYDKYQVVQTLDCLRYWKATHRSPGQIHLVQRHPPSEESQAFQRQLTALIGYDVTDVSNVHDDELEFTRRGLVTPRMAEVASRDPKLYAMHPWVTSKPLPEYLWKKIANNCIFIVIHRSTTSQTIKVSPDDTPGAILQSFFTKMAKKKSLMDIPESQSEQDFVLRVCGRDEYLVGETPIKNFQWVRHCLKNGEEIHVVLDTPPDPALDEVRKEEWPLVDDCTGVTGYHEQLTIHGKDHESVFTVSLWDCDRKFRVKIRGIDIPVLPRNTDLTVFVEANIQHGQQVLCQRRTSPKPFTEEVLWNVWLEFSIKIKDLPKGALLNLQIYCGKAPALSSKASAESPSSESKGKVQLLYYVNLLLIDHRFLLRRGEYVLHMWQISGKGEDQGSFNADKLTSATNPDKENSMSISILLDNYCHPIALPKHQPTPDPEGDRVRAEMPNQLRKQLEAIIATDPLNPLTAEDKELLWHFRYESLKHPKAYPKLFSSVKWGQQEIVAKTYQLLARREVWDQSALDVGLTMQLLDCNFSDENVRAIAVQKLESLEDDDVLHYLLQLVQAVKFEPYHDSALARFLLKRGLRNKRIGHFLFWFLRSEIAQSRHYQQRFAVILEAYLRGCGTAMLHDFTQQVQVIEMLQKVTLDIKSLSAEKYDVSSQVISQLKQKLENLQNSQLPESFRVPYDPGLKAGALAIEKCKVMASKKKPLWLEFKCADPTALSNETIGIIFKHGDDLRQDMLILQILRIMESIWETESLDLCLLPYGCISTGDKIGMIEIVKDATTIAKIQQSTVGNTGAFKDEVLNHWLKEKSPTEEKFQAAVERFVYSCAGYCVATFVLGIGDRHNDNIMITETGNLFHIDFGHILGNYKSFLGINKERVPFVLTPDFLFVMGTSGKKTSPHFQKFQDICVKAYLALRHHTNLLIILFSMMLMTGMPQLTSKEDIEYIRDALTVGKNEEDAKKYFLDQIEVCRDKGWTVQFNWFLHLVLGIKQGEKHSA
Series [4] concerns the target T2, Phosphatidylinositol 4,5-bisphosphate 3-kinase catalytic subunit delta isoform (Homo sapiens, UniProt O00329).
T2 sequence (O00329 whole entry): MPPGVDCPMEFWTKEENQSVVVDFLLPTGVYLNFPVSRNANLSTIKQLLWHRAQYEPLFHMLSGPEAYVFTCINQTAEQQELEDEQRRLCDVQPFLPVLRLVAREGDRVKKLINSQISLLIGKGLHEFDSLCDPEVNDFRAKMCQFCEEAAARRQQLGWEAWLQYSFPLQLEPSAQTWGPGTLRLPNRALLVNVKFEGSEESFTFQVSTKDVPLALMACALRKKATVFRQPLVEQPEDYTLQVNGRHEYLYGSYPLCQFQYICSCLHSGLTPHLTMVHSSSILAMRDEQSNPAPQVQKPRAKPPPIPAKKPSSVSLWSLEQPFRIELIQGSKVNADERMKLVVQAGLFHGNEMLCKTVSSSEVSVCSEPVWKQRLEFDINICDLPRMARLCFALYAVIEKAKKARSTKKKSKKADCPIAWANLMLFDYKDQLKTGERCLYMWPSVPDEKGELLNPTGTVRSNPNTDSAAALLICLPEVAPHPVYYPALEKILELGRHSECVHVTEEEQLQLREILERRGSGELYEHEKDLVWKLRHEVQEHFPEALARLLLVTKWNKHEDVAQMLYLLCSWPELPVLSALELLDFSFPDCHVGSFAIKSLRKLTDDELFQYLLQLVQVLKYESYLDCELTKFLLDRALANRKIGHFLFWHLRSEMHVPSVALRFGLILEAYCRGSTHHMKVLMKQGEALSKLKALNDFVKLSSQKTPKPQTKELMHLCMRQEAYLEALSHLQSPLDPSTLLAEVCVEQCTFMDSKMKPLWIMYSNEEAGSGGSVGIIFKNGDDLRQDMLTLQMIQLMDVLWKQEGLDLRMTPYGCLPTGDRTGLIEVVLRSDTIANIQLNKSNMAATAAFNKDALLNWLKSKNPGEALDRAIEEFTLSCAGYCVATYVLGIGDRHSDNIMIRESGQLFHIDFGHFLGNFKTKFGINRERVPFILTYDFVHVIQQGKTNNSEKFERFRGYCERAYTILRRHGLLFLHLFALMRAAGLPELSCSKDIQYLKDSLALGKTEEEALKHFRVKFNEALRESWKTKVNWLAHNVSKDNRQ
Put plainly: Inhibition of human PI3Kdelta after 15 mins.

Series [5] has as its target T1, Phosphatidylinositol 4,5-bisphosphate 3-kinase catalytic subunit beta isoform. Put plainly: Inhibition of human PI3Kbeta after 15 mins.
Series [6] deals with Phosphatidylinositol 4,5-bisphosphate 3-kinase catalytic subunit alpha isoform (Homo sapiens, UniProt P42336). The series can be described thus: Inhibition of human PI3Kalpha after 15 mins.
Phosphatidylinositol 4,5-bisphosphate 3-kinase catalytic subunit alpha isoform, sequence (P42336 whole entry, canonical isoform): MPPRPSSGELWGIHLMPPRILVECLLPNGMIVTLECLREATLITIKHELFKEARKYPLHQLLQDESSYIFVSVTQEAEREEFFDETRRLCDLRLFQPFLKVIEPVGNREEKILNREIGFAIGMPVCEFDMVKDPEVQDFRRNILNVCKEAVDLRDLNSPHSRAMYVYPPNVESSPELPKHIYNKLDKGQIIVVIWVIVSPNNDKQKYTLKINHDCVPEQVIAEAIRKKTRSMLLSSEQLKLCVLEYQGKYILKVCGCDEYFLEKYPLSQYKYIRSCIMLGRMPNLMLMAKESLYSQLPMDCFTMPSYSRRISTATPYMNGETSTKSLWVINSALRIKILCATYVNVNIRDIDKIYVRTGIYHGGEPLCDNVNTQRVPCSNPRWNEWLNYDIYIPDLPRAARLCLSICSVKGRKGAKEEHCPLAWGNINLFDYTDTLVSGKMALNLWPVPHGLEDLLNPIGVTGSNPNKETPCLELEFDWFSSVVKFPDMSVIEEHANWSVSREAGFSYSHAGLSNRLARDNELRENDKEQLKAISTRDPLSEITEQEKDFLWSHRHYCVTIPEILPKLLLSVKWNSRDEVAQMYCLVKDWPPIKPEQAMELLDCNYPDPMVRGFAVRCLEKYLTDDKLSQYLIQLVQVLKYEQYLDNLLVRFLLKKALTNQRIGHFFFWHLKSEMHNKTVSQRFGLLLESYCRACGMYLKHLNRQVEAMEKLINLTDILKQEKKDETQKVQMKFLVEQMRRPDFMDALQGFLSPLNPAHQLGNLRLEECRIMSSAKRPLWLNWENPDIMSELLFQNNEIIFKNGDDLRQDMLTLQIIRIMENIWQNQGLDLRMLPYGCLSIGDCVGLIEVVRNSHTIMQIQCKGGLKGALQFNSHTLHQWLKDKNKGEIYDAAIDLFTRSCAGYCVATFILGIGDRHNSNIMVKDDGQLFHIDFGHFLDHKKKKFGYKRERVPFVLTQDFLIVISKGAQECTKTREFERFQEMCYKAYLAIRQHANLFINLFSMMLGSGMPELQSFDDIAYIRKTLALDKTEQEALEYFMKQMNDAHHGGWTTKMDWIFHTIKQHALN
The nature of series [7]: (§1) Drug metabolism in human liver microsomes assessed as compound lability. Format: ADME. The settings on record: liver microsomes, read-out: Drug metabolism. A general note: Microsomes from liver hold many membrane-bound enzymes, among them those of drug oxidation.
Another series deals with Cytochrome P450 3A4 (Homo sapiens, UniProt P08684). Put plainly: Inhibition of human recombinant CYP3A4.
Cytochrome P450 3A4, sequence (P08684 whole entry): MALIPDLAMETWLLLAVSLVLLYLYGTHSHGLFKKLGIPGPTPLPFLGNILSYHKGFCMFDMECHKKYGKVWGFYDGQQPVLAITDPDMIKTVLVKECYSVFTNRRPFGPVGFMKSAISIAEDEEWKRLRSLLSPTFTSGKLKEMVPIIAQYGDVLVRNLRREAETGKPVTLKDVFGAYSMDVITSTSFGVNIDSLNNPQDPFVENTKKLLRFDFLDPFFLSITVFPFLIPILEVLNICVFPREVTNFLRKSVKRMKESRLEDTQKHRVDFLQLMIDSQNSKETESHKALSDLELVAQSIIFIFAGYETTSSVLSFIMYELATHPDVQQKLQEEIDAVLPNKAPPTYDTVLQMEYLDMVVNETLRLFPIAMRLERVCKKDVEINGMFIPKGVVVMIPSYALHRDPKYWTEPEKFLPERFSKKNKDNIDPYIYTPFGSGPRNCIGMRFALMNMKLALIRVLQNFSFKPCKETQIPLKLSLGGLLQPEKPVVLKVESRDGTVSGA
A short description of series [8]: Drug metabolism in mouse liver microsomes assessed as compound lability. The format is ADME, Microsome. The following applies: for metabolised: liver microsomes, read-out: Drug metabolism; for Drug metabolism: microsomes.
Series [9] can be described thus: Efflux ratio of permeability from basolateral to apical side over apical to basolateral side in human Caco2 cells. The format is ADME, cell-based. The following applies: Caco-2.
Series [10] can be described thus: (§2) Apparent permeability of the compound in human Caco2 cells. The format is ADME, cell-based. The following applies: Caco-2. A general note: Caco-2 cells form a polarised layer with tight junctions and transporters.
Series [11] can be described thus: Plasma protein binding in mouse. Format: ADME, organism-based. The following applies: read-out: PPB (converted).
Series [12] is described as follows: Plasma concentration in SCID mouse harboring human PTEN-deficient PC3 cells at 150 mg/kg, po after 16 hrs. The format is ADME, organism-based, PC-3. More on the design: dose 150 mg/kg, route oral.
Series [13] in a line: Plasma concentration in SCID mouse harboring human PTEN-deficient PC3 cells at 150 mg/kg, po after 7 hrs. The format is ADME, organism-based, PC-3. Set-up: dose 150 mg/kg, route oral.
Series [14] in a line: Plasma concentration in SCID mouse harboring human PTEN-deficient PC3 cells at 150 mg/kg, po after 1 hr. The format is ADME, organism-based, PC-3. Set-up: dose 150 mg/kg, route oral.
Series [15] in a line: Oral bioavailability in Sprague-Dawley rat at 10 mg/kg. Format: ADME, organism-based. The settings on record: in vivo.
Series [16] can be described thus: Terminal elimination half life in Sprague-Dawley rat at 3 mg/kg, iv. The format is ADME, organism-based. More on the design: dose 3 mg/kg, route intravenous. The following applies: in vivo, read-out: beta t1/2 (converted).
Series [17] is described as follows: Volume of distribution at steady state in Sprague-Dawley rat at 3 mg/kg, iv. Format: ADME, organism-based. Set-up: dose 3 mg/kg, route intravenous. The settings on record: in vivo, read-out: Vdss.
The nature of series [18]: Drug metabolism in rat liver microsomes assessed as compound lability. The format is ADME. The settings on record: read-out: Drug metabolism.
Series [19] in a line: Clearance in Sprague-Dawley rat at 3 mg/kg, iv. The format is ADME, organism-based. More on the design: dose 3 mg/kg, route intravenous. The settings on record: in vivo.
Series [20] is described as follows: Terminal elimination half life in Sprague-Dawley rat at 10 mg/kg, po. The settings on record: in vivo, read-out: beta t1/2 (converted). The format is ADME, organism-based. Set-up: dose 10 mg/kg, route oral.
Series [21] is described as follows: Tmax in Sprague-Dawley rat at 10 mg/kg, po. Format: ADME, organism-based. Set-up: dose 10 mg/kg, route oral. The following applies: in vivo.
Series [22] can be described thus: AUC in Sprague-Dawley rat at 10 mg/kg, po. The format is ADME, organism-based. Set-up: dose 10 mg/kg, route oral. The settings on record: plasma.
Series [23] in a line: Cmax in Sprague-Dawley rat at 10 mg/kg, po. The format is ADME, organism-based. More on the design: dose 10 mg/kg, route oral. The following applies: in vivo.
For a further series, the system named is Liver microsome. The description is as §1. The format is ADME. The settings on record: microsomes.
Another series has as its system Caco-2. Described as §2. The format is ADME, cell-based.
Series [24] in a line: Plasma concentration in SCID mouse harboring human PTEN-deficient PC3 cells at 100 mg/kg, po after 7 hrs. Format: ADME, organism-based, PC-3. Set-up: dose 100 mg/kg, route oral.
A short description of series [25]: Plasma concentration in SCID mouse harboring human PTEN-deficient PC3 cells at 100 mg/kg, po after 16 hrs. The format is ADME, organism-based, PC-3. More on the design: dose 100 mg/kg, route oral.
The nature of series [26]: Plasma concentration in SCID mouse harboring human PTEN-deficient PC3 cells at 100 mg/kg, po after 1 hr. Format: ADME, organism-based, PC-3. More on the design: dose 100 mg/kg, route oral.
In series [27] the test system is Mus musculus. Put plainly: Inhibition of PI3Kbeta in SCID mouse harboring human PTEN-deficient PC3 cells assessed as Akt phosphorylation at S473 at 100 mg/kg, po after 16 hrs. More on the design: dose 100 mg/kg. The format is functional, organism-based. The settings on record: PC-3.
Series [28] deals with Mus musculus. The series can be described thus: Inhibition of PI3Kbeta in SCID mouse harboring human PTEN-deficient PC3 cells assessed as Akt phosphorylation at S473 at 100 mg/kg, po after 7 hrs. The format is functional, organism-based. More on the design: dose 100 mg/kg. The settings on record: PC-3.
In series [29] the test system is Mus musculus. The series can be described thus: Inhibition of PI3Kbeta in SCID mouse harboring human PTEN-deficient PC3 cells assessed as Akt phosphorylation at S473 at 100 mg/kg, po after 1 hr. The following applies: PC-3. Format: functional, organism-based. More on the design: dose 100 mg/kg.

≈ marks a conversion by molar mass, not a printed value. Calls of active or inactive are those of the source. No cut-off for these calls is given here.

The term IC50 denotes the concentration that gives 50% inhibition. As usually defined, the efflux ratio is the permeability from basolateral to apical divided by that in the opposite direction, in the common usage. As a reminder, the Papp is a coefficient for how fast a substance crosses the barrier. `O=C(O)c1sc(N2CCOCC2)nc1CC(=O)N1CCc2cc(F)ccc21`: in series [1], the solubility thermodynamic at 16 h was determined as 5.11 mM (≈ 2000 µg/mL). In addition, the half-maximal inhibitory concentration (IC50) in series [2] is 1730 nM; in [3], greater than 10000 nM; in [4] it was 64 nM; in [5], 25 nM; in series [6] it was greater than 10000 nM; on Cytochrome P450 3A4, 40000 nM. Further, the metabolised in [7] and in [8] was 1% throughout. Moreover, the efflux ratio in series [9] amounted to 13. Also, the Papp in [10] turned out to be 0.4 ×10⁻⁶ cm/s.

A word on the bioavailability: it is dose-corrected exposure relative to a reference, in per cent. Read a high bioavailability as much systemic uptake. Usually clearance stands for the rate of elimination divided by the concentration. Read a high clearance as a high capacity for elimination. A word on the Tmax: it is the time from dosing to the highest level. One may read the AUC as concentration integrated over time. In general, Cmax refers to the maximum level reached in the sampled fluid or tissue. For `CC1Cc2c(Br)cccc2N1C(=O)Cc1nc(N2CCOCC2)sc1C(=O)O` (single isomer, unassigned; enantiomer 1), the Therm_solubility in [1] (buffer, pH 7.4, 16 h, 16 h) was 3.795 mM. The IC50 in series [2] is 140 nM; in [3] it was 4350 nM; in series [4], 63 nM; in series [5] it was 10 nM; in series [6] it was 395 nM. In addition, the fraction unbound in series [11] was 0.015. In [12], this compound had a concentration at 16 h of 3000 nM. Besides, the concentration at 7 h in series [13] worked out at 79000 nM. Besides, the concentration at 1 h in series [14] stood at 181000 nM. The bioavailability in series [15] is 99%. Further, the half-life was 3.8 h in series [16] and 6.3 h in series [20]. The Vd in [17] turned out to be 0.65 L/kg. Also, the metabolised in [18] was 7%. In [19], this compound showed a clearance of 4.17 mL/min/kg. Moreover, the Tmax in [21] amounted to 0.25 h. This compound also returned an AUC in [22] of 41000 ng·h/mL. Besides, the concentration in series [23] peaked (Cmax) at 15100 ng/mL. In series [8], the Drug metabolism was 17%. Besides, the Papp in [10] was determined as 0.5 ×10⁻⁶ cm/s.

As to `CC1Cc2c(Br)cccc2N1C(=O)Cc1nc(N2CCOCC2)sc1C(N)=O` (single isomer, unassigned; enantiomer 2), the IC50 is 17 nM in [2]; greater than 10000 nM in [3]; 430 nM in series [4]; 58 nM in series [5]; 1320 nM in series [6]; 40000 nM on Cytochrome P450 3A4. Besides, the values for the Drug metabolism (in the series with Liver microsome; in series [8]) were 75% and 67%, respectively. In the series on Caco-2, the Papp amounted to 20.7 ×10⁻⁶ cm/s.

Turning to `NC(=O)c1sc(N2CCOCC2)nc1CC(=O)N1CCc2cc(F)ccc21`, in series [1], the solubility thermodynamic at 16 h turned out to be 0.007 mM (≈ 2.73 µg/mL). Besides, the IC50 in series [2] is 15 nM; in series [3], greater than 10000 nM; in series [4], 134 nM; in [5], 22 nM; in [6] it was 6970 nM; on Cytochrome P450 3A4, 40000 nM. The concentration at 7 h in [24] is 40 nM. Also, the concentration at 16 h in [25] was 4 nM. Also, the concentration at 1 h in [26] was 310 nM. The inhibition result in the series with Mus musculus [27], in the series with Mus musculus [28] and in the series with Mus musculus [29] was “Active” in each case. The results for the metabolised in series [7] and in series [8] were 17% and 22%, respectively. In addition, the Papp in [10] is 22.2 ×10⁻⁶ cm/s.
